Experimental data taken from ChEMBL document CHEMBL3868595, “Plazomicin is effective in a non-human primate pneumonic plague model” (Bioorg Med Chem, 2016).
Calls of active or inactive are those of the source. The rule behind the calls is not given here.

Experiments:
[1] = Cmax in African green monkey blood at 25 mg/kg administered as iv infusion twice daily for 7 consecutive days measured on day 1 by LC-MS/MS analysis; type: ADME, organism-based; parameters: dose 25 mg/kg, route intravenous; conditions: chlorocebus aethiops
[2] = AUC (0 to 24 hrs) in African green monkey blood at 35 mg/kg administered as iv infusion twice daily for 7 consecutive days measured on day 7 by LC-MS/MS analysis; type: ADME, organism-based; parameters: time < 24 hr, dose 35 mg/kg, route intravenous; conditions: chlorocebus aethiops
[3] = Clearance in African green monkey blood at 25 mg/kg administered as iv infusion twice daily for 7 consecutive days measured on day 1 by LC-MS/MS analysis; type: ADME, organism-based; conditions: chlorocebus aethiops
[4] = Volume of distribution at steady state in African green monkey blood at 25 mg/kg administered as iv infusion twice daily for 7 consecutive days measured on day 7 by LC-MS/MS analysis; type: ADME, organism-based; conditions: chlorocebus aethiops, read-out: Vdss
[5] = Volume of distribution at steady state in African green monkey blood at 35 mg/kg administered as iv infusion twice daily for 7 consecutive days measured on day 7 by LC-MS/MS analysis; type: ADME, organism-based; conditions: chlorocebus aethiops, read-out: Vdss
African green monkey [6] = assay: Toxicity in African green monkey assessed as effect on serum creatinine level at 35 mg/kg administered as iv infusion twice daily for 7 consecutive days measured on day 7 by LC-MS/MS analysis; type: organism-based; conditions: chlorocebus sabaeus, in vivo
Yersinia pestis [7] = assay: Antibacterial activity against Yersinia pestis Colorado 92 infected in African green monkey assessed as survival of monkey at 12.5 mg/kg, iv administered within 6 hrs post onset of sustained fever as 30 mins infusion for 5 days; type: functional; conditions: CO92, iv
Yersinia pestis [8] = assay: Antibacterial activity against Yersinia pestis Colorado 92 infected in African green monkey assessed as improvement in survival of monkey at 6.25 to 25 mg/kg, iv administered within 6 hrs post onset of sustained fever as 30 mins infusion for 10 days; type: functional, organism-based; conditions: CO92
Yersinia pestis [9] = assay: (§1) Antibacterial activity against Yersinia pestis Colorado 92 infected in African green monkey B6106 model assessed as bacterial burden in lung at 25 mg/kg, iv administered within 6 hrs post onset of sustained fever as 30 mins infusion for 5 days (reference value: 7.7 10^8CFU/g); type: functional, CO92
Yersinia pestis [10] = assay: Antibacterial activity against Yersinia pestis Colorado 92 infected in African green monkey B6872 model assessed as bacterial burden in lung at 25 mg/kg, iv administered within 6 hrs post onset of sustained fever as 30 mins infusion for 5 days (reference value: 7.7 10^8CFU/g); type: functional, organism-based; conditions: CO92
Yersinia pestis [11] = assay: Antibacterial activity against Yersinia pestis Colorado 92 infected in African green monkey 8047 model assessed as bacterial burden in lung at 6.25 mg/kg, iv administered within 6 hrs post onset of sustained fever as 30 mins infusion for 10 days (reference value: 7.7 10^8CFU/g); type: functional, CO92
Yersinia pestis [12] = assay: Antibacterial activity against Yersinia pestis Colorado 92 infected in African green monkey B6861 model assessed as bacterial burden in liver at 6.25 mg/kg, iv administered within 6 hrs post onset of sustained fever as 30 mins infusion for 5 days (reference value: 5.2 10^8CFU/g); type: functional, CO92
Yersinia pestis [13] = assay: Antibacterial activity against Yersinia pestis Colorado 92 infected in African green monkey B6889 model assessed as bacterial burden in kidney at 6.25 mg/kg, iv administered within 6 hrs post onset of sustained fever as 30 mins infusion for 5 days (reference value: 7.1 10^7CFU/g); type: functional, CO92
Yersinia pestis [14] = assay: as §1, with “C2083” for “B6106”, “tracheobronchial lymph nodes” for “lung”, “12.5” for “25”, “10^9CFU/g)” for “10^8CFU/g)”; type: functional, CO92, Lymph node
Yersinia pestis [15] = assay: Antibacterial activity against Yersinia pestis Colorado 92 infected in African green monkey B6873 model assessed as bacterial burden in brain at 12.5 mg/kg, iv administered within 6 hrs post onset of sustained fever as 30 mins infusion for 5 days (reference value: 1.9 10^6CFU/g); type: functional, CO92
Yersinia pestis [16] = assay: Antibacterial activity against Yersinia pestis Colorado 92 infected in African green monkey B6106 model assessed as bacterial burden in brain at 25 mg/kg, iv administered within 6 hrs post onset of sustained fever as 30 mins infusion for 5 days (reference value: 1.9 10^6CFU/g); type: functional, CO92
Yersinia pestis [17] = assay: Antibacterial activity against Yersinia pestis Colorado 92 infected in African green monkey C2083 model assessed as bacterial burden in brain at 12.5 mg/kg, iv administered within 6 hrs post onset of sustained fever as 30 mins infusion for 5 days (reference value: 1.9 10^6CFU/g); type: functional, CO92
Yersinia pestis [18] = assay: Antibacterial activity against Yersinia pestis Colorado 92 infected in African green monkey B6988 model assessed as bacterial burden in brain at 6.25 mg/kg, iv administered within 6 hrs post onset of sustained fever as 30 mins infusion for 5 days (reference value: 1.9 10^6CFU/g); type: functional, CO92
Yersinia pestis [19] = assay: Antibacterial activity against Yersinia pestis Colorado 92 infected in African green monkey 8047 model assessed as bacterial burden in brain at 6.25 mg/kg, iv administered within 6 hrs post onset of sustained fever as 30 mins infusion for 10 days (reference value: 1.9 10^6CFU/g); type: functional, CO92
Yersinia pestis [20] = assay: Antibacterial activity against Yersinia pestis Colorado 92 infected in African green monkey B6872 model assessed as bacterial burden in blood at 25 mg/kg, iv administered within 6 hrs post onset of sustained fever as 30 mins infusion for 5 days (reference value: 1.2 10^7CFU/ml); type: functional, organism-based; conditions: CO92
African green monkey [21] = assay: Toxicity in African green monkey B6127 model infected with Yersinia pestis Colorado 92 assessed as stomach ulcer at 25 mg/kg, iv administered within 6 hrs post onset of sustained fever as 30 mins infusion for 10 days measured by hematoxylin staining based assay; type: organism-based; conditions: chlorocebus sabaeus, in vivo
African green monkey [22] = assay: Toxicity in African green monkey B6127 model infected with Yersinia pestis Colorado 92 assessed as tubule damage at 25 mg/kg, iv administered within 6 hrs post onset of sustained fever as 30 mins infusion for 10 days by hematoxylin staining based assay; type: organism-based; conditions: chlorocebus sabaeus, in vivo
African green monkey [23] = assay: Toxicity in African green monkey B6428 model infected with Yersinia pestis Colorado 92 assessed as blood urea nitrogen level at 25 mg/kg, iv administered within 6 hrs post onset of sustained fever as 30 mins infusion for 10 days (reference value: 16 mg/dl); type: organism-based; conditions: chlorocebus sabaeus, in vivo
African green monkey [24] = assay: Toxicity in African green monkey 8067 model infected with Yersinia pestis Colorado 92 assessed as blood urea nitrogen level at 25 mg/kg, iv administered within 6 hrs post onset of sustained fever as 30 mins infusion for 10 days (reference value: 13 mg/dl); type: organism-based; conditions: chlorocebus sabaeus, in vivo
[25] = Toxicity in African green monkey B6291 model infected with Yersinia pestis Colorado 92 assessed as total white blood cell count at 25 mg/kg, iv administered within 6 hrs post onset of sustained fever as 30 mins infusion for 10 days (reference value: 12 10^3/microL); type: organism-based; conditions: chlorocebus aethiops, in vivo
[26] = Toxicity in African green monkey B6428 model infected with Yersinia pestis Colorado 92 assessed as total white blood cell count at 25 mg/kg, iv administered within 6 hrs post onset of sustained fever as 30 mins infusion for 10 days (reference value: 6.2 10^3/microL); type: organism-based; conditions: chlorocebus aethiops, in vivo
[27] = Toxicity in African green monkey 7337 model infected with Yersinia pestis Colorado 92 assessed as total white blood cell count at 25 mg/kg, iv administered within 6 hrs post onset of sustained fever as 30 mins infusion for 10 days (reference value: 7.5 10^3/microL); type: organism-based; conditions: chlorocebus aethiops, in vivo

Compound: CN[C@@H]1[C@@H](O)[C@@H](O[C@@H]2[C@@H](O)[C@H](O[C@H]3OC(CNCCO)=CC[C@H]3N)[C@@H](N)C[C@H]2NC(=O)[C@@H](O)CCN)OC[C@]1(C)O [PLAZOMICIN]
- Cmax [1]: 96 µg/mL
- AUC at 24 h [2]: 319 µg·h/mL
- clearance [3]: 2.17 mL/min/kg
- Vd [4]: 0.36 L/kg
- Vd [5]: 0.31 L/kg
- Activity (African green monkey [6]): 0.6 mg/dL
- survival at 12.5 mg/kg (Yersinia pestis [7]): 33%
- Activity (Yersinia pestis [8]): Active
- Activity (Yersinia pestis [9]): 19 CFU/g
- Activity (Yersinia pestis [10]): Below limit of detection
- Activity (Yersinia pestis [11]): 6.6 ×10⁹ CFU/g
- Activity (Yersinia pestis [12]): 16 CFU/g
- Activity (Yersinia pestis [13]): 1.1 ×10⁶ CFU/g
- Activity (Yersinia pestis [14]): 8 ×10⁹ CFU/g
- Activity (Yersinia pestis [15]): 44 CFU/g
- Activity (Yersinia pestis [16]): 6.4 ×10⁷ CFU/g
- Activity (Yersinia pestis [17]): 2.2 ×10⁶ CFU/g
- Activity (Yersinia pestis [18]): 11 CFU/g
- Activity (Yersinia pestis [19]): 60 CFU/g
- Activity (Yersinia pestis [20]): Below limit of detection
- Activity (African green monkey [21]): Toxic
- Activity (African green monkey [22]): Toxic
- Activity (African green monkey [23]): 26 mg/dL
- Activity (African green monkey [24]): 21 mg/dL
- Activity [25]: 5.9 ×10³ /uL
- Activity [26]: 6 ×10³ /uL
- Activity [27]: 5 ×10³ /uL
